Measurements: the NIST ThermoML archive (doi:10.1016/j.jct.2016.05.006)
Several values for one entry are separate records, joined by “and”; a condition that tells them apart may be missing. Equal values may be shown once.

Details: Liquid, Vibrating tube method

OCC(O)CO [glycerol]
mass density
Details	298.15 K	303.15 K	308.15 K	313.15 K	318.15 K	328.15 K	338.15 K	348.15 K
100 kPa	1258.4 kg/m3 and 1259.1 kg/m3	1255.7 kg/m3	1252.9 kg/m3 and 1253 kg/m3	1250.1 kg/m3	1247 kg/m3	1240.9 kg/m3	1234.8 kg/m3	1228.7 kg/m3
5000 kPa	1260.7 kg/m3 and 1260.6 kg/m3	1257.8 kg/m3	1254.9 kg/m3 and 1254.6 kg/m3	1251.8 kg/m3	1248.5 kg/m3	1242.5 kg/m3	1236.4 kg/m3	1230.4 kg/m3
10000 kPa	1262.3 kg/m3 and 1262.1 kg/m3	1259.3 kg/m3	1256.3 kg/m3 and 1256.1 kg/m3	1253.4 kg/m3	1250.1 kg/m3	1244.1 kg/m3	1238.1 kg/m3	1232.1 kg/m3
15000 kPa	1263.7 kg/m3 and 1263.6 kg/m3	1260.8 kg/m3	1257.9 kg/m3 and 1257.6 kg/m3	1254.9 kg/m3	1251.6 kg/m3	1245.6 kg/m3	1239.6 kg/m3	1233.6 kg/m3
20000 kPa	1265.2 kg/m3 and 1265.1 kg/m3	1262.3 kg/m3	1259.4 kg/m3 and 1259.1 kg/m3	1256.4 kg/m3	1253.2 kg/m3	1247.2 kg/m3	1241.3 kg/m3	1235.3 kg/m3
25000 kPa	1266.6 kg/m3 and 1266.5 kg/m3	1263.7 kg/m3	1260.8 kg/m3 and 1260.6 kg/m3	1257.9 kg/m3	1254.7 kg/m3	1248.8 kg/m3	1242.9 kg/m3	1237.1 kg/m3
